Laboratory results reported in patent publication US20110275707A1, “SUBSTITUTED AFPO (6-ARYL-4H-FURO[3,2-C]PYRAN-4-ONE) DERIVATIVES AS ANTI-CANCER AGENTS” (priority 2008, published 2011).

System: SK-BR-3 (HER2+) human tumor cell line
Experiment: Cell growth inhibition assay (SRB), SK-BR-3
Type: cell-based
Settings: SK-BR-3, compared with 1
Procedure: Cell Growth Inhibition Assay. All stock cultures are grown in T-25 flasks. Freshly trypsinized cell suspensions were seeded in 96-well microliter plates with compounds added from DMSO-diluted stock. The plates were incubated for an additional 72 h after attachment and drug addition, and the assay was terminated by 10% TCA. Then, 0.4% SRB dye in 1% HOAc was added to stain the cells for 10 minutes. Unbound dye was removed by repeated washing with 1% HOAc and the plates were air dried. Bound stain was subsequently solved with 10 mM trizma base, and the absorbance read at 515 nm. Growth inhibition of 50% (GI50) is calculated as the drug concentration, which caused a 50% reduction in the net protein increase in control cells during the drug incubation. The mean ED50 is the concentration of agent that reduces cell growth by 50% under the experimental conditions and is the average from at least two independent determinations. Variation between replicates was no more than 5% of the mean. The following human tumor cell lines were used in the assay: A549 (non small cell lung cancer), ZR-75-1 (estrogen receptor positive breast cancer), MDA MB-231 (estrogen receptor negative breast cancer), SKBR-3 (estrogen receptor negative, HER-2 over-expressing breast cancer), KB (nasopharyngeal carcinoma), KB-VIN (vincristine-resistant KB subline). […]

| SMILES | potency against SK-BR-3 relative to 1 |
| --- | --- |
| COc1cc(OC)cc(-c2cc3occ(C)c3c(=O)o2)c1 [Compound 25, 6-(3,5-Dimethoxyphenyl)-3-methyl-4H-furo[3,2-c]pyran-4-one] | approximately threefold |

System: not given
Experiment: not given
Settings: not given

| SMILES | melting point |
| --- | --- |
| Cc1coc2cc(-c3cccc(O)c3)oc(=O)c12 [Compound 13, 6-(3-Hydroxyphenyl)-3-methyl-4H-furo[3,2-c]pyran-4-one] | 225 to 227 °C |
| Cc1coc2cc(-c3ccc(O)cc3)oc(=O)c12 [Compound 18, 6-(4-Hydroxyphenyl)-3-methyl-4H-furo[3,2-c]pyran-4-one] | 258 to 260 °C |
| Cc1coc2cc(-c3ccccc3)oc(=O)c12 [Compound 9, 3-Methyl-6-phenyl-4H-furo[3,2-c]pyran-4-one] | 105 to 107 °C |
| COc1ccc(-c2cc3occ(C)c3c(=O)o2)cc1 [Compound 17, 6-(4-Methoxyphenyl)-3-methyl-4H-furo[3,2-c]pyran-4-one] | 146 to 148 °C |
| CCOc1cccc(-c2cc3occ(C)c3c(=O)o2)c1 [Compound 12, 6-(3-Ethoxyphenyl)-3-methyl-4H-furo[3,2-c]pyran-4-one] | 128 to 130 °C |
| Cc1coc2cc(-c3cccc(F)c3)oc(=O)c12 [Compound 14, 6-(3-Fluorophenyl)-3-methyl-4H-furo[3,2-c]pyran-4-one] | 158 to 160 °C |
| Cc1cccc(-c2cc3occ(C)c3c(=O)o2)c1 [Compound 10, 3-Methyl-6-m-tolyl-4H-furo[3,2-c]pyran-4-one] | 135 to 137 °C |
| Cc1ccc(-c2cc3occ(C)c3c(=O)o2)cc1 [Compound 16, 3-Methyl-6-p-tolyl-4H-furo[3,2-c]pyran-4-one] | 153 to 155 °C |
| COc1cccc(-c2cc3occ(C)c3c(=O)o2)c1 [Compound 11, 6-(3-Methoxyphenyl)-3-methyl-4H-furo[3,2-c]pyran-4-one] | 119 to 121 °C |
| Cc1coc2cc(-c3ccc(F)cc3)oc(=O)c12 [Compound 15, 6-(4-Fluorophenyl)-3-methyl-4H-furo[3,2-c]pyran-4-one] | 175 to 177 °C |

The remaining lines, values ahead:

| melting point | SMILES |
| --- | --- |
| 153 to 155 °C | COc1cc(OC)cc(-c2cc3occ(C)c3c(=O)o2)c1 [Compound 25, 6-(3,5-Dimethoxyphenyl)-3-methyl-4H-furo[3,2-c]pyran-4-one] |
| 182 to 184 °C | Cc1ccc(-c2cc3occ(C)c3c(=O)o2)cc1C [Compound 21, 6-(3,4-Dimethylphenyl)-3-methyl-4H-furo[3,2-c]pyran-4-one] |
| 163 to 165 °C | COc1cc(OC)cc(-c2cc3oc(C)c(C)c3c(=O)o2)c1 [Compound 29, 6-(3,5-Dimethoxyphenyl)-2,3-dimethyl-4H-furo[3,2-c]pyran-4-one] |
| > 300 °C | Cc1coc2cc(-c3cc(O)cc(O)c3)oc(=O)c12 [Compound 26, 6-(3,5-Dihydroxyphenyl)-3-methyl-4H-furo[3,2-c]pyran-4-one] |
| 154 to 156 °C | COc1ccc(-c2cc3occ(C)c3c(=O)o2)cc1OC [Compound 22, 6-(3,4-Dimethoxyphenyl)-3-methyl-4H-furo[3,2-c]pyran-4-one] |
| 111 to 113 °C | COc1cccc(-c2cc3occ(C)c3c(=O)o2)c1OC [Compound 19, 6-(2,3-Dimethoxyphenyl)-3-methyl-4H-furo[3,2-c]pyran-4-one] |
| 171 to 173 °C | Cc1cc(C)cc(-c2cc3occ(C)c3c(=O)o2)c1 [Compound 24, 6-(3,5-Dimethylphenyl)-3-methyl-4H-furo[3,2-c]pyran-4-one] |
| 131 to 133 °C | CCc1coc2cc(-c3cc(OC)cc(OC)c3)oc(=O)c12 [Compound 28, 6-(3,5-Dimethoxyphenyl)-3-ethyl-4H-furo[3,2-c]pyran-4-one] |
| 147 to 149 °C | COc1cc(OC)cc(-c2cc3occ(C)c3c(=S)o2)c1 [Compound 30, 6-(3,5-Dimethoxyphenyl)-3-methyl-4H-furo[3,2-c]pyran-4-thione] |
| 201 to 203 °C | COc1cc(-c2cc3occ(C)c3c(=O)o2)cc(OC)c1OC [Compound 27, 3-Methyl-6-(3,4,5-trimethoxyphenyl)-4H-furo[3,2-c]pyran-4-one] |
| 259 to 261 °C | Cc1coc2cc(-c3ccc(O)c(O)c3)oc(=O)c12 [Compound 23, 6-(3,4-Dihydroxyphenyl)-3-methyl-4H-furo[3,2-c]pyran-4-one] |
| 239 to 241 °C | Cc1coc2cc(-c3cccc(O)c3O)oc(=O)c12 [Compound 20, 6-(2,3-Dihydroxyphenyl)-3-methyl-4H-furo[3,2-c]pyran-4-one] |
